Experimental data published in patent US6337306B1, “Phenoxyacetic acid derivatives and their use as herbicides” (Rhone-Poulenc Agro, priority 1997, dated 2002).

Key:
Oryza sativa = test: Test Method 1: soil application in paddy fields, phytotoxicity on transplanted paddy field rice plants; assay type: in vivo, Oryza sativa (variety: Koshihikari); details: 1 kg ai/ha, transplanted rice at two-leaf stage, assessed 28 days after application; further: ranges in brackets are in %
Method: (§1) Test Method 1 (Soil Application in Paddy Fields) A suitable amount of water and chemical fertiliser were added to paddy field soil. A plastic pot (1/5000 a; 200 cm2) was filled with a portion of this soil followed by kneading to convert it to a state of a paddy field. A stock of paddy field rice plant (variety: Koshihikari) comprising a pair of two seedlings, which had been grown in advance in a greenhouse to the stage of two leaves, was transplanted into each pot. Furthermore, in each pot, there were sown predetermined amounts of seeds of Echinochloa orizicola, Monochoria vaginalis var. plantaginea, Lindernia procumbens and Scirpus jundoides var. hotarui, respectively, and water was added to a depth of 3 cm. On the next day a wettable powder formula was prepared by the method described in the Formulation Example 2, and diluted with a suitable amount of water to give a concentration of active ingredient of 1 kg per ha. The diluted formula was applied by dropping with a pipette. After 28 days from the application with the chemicals, herbicidal effects on each weeds and phytotoxicity on paddy field rice plants were assessed according to the following criteria of Table 3. [table]

Soya, Maize, Rice, Wheat = test: Test Method 2: crop damage / selectivity, glass house pot test; assay type: in vivo, crop species; details: at levels of applications toxic to the weeds
Method: TEST METHOD 2 a) General Appropriate quantities of the compounds used to treat the plants were dissolved in acetone to give solutions equivalent to application rates of up to 250 g test compound per hectare (g/ha). These solutions were applied from an automatic laboratory herbicide sprayer delivering the equivalent of 720 liters of spray fluid per hectare. b) Weed control: Pre-emergence The seeds were sown in 70 mm square, 75 mm deep plastic pots in non-sterile soil, 3 species per pot. The quantities of seed per pot were as follows: [table] The compounds of the invention were applied to the soil surface, containing the seeds, as described in (a). Pots containing the species represented were allocated to each treatment, with unsprayed controls and controls sprayed with acetone alone. After treatment the pots were placed on capillary matting kept in a glass house, and watered overhead. Visual assessment of crop damage was made 17 days after spraying. The results were expressed as the percentage reduction in growth or damage to the crop or weeds, in comparison with the plants in the control pots.

Lindemia procunbens = test: Test Method 1: soil application in paddy fields, herbicidal efficacy; assay type: in vivo; details: 1 kg ai/ha, wettable powder applied to paddy water, assessed 28 days after application; further: ranges in brackets are in %
Method: as §1

Scirpus juncoides = test: as above; assay type: in vivo; details: 1 kg ai/ha, wettable powder applied to paddy water, assessed 28 days after application; further: ranges in brackets are in %
Method: as §1

Echinochloa oryzicola = test: as above; assay type: in vivo; details: 1 kg ai/ha, wettable powder applied to paddy water, assessed 28 days after application; further: ranges in brackets are in %
Method: as §1

Monochoria vaginalis = test: as above; assay type: in vivo; details: 1 kg ai/ha, wettable powder applied to paddy water, assessed 28 days after application; further: ranges in brackets are in %
Method: as §1

| Compound | Phytotoxicity ORYSA (Oryza sativa) | crop selectivity (Soya, Maize, Rice, Wheat) | Herbicidal efficacy (Point) LIDPY (Lindemia procunbens) | Herbicidal efficacy (Point) SCPJU (Scirpus juncoides) | Herbicidal efficacy (Point) ECHOR (Echinochloa oryzicola) | Herbicidal efficacy (Point) MOOVA (Monochoria vaginalis) | Phytotoxicity ORYSA (Oryza sativa; listed as 5.146 E isomer) | Herbicidal efficacy (Point) LIDPY (Lindemia procunbens; listed as 5.146 E isomer) | Herbicidal efficacy (Point) ECHOR (Echinochloa oryzicola; listed as 5.146 E isomer) | Phytotoxicity ORYSA (Oryza sativa; listed as 5.146 Z isomer) | Herbicidal efficacy (Point) LIDPY (Lindemia procunbens; listed as 5.146 Z isomer) | Herbicidal efficacy (Point) ECHOR (Echinochloa oryzicola; listed as 5.146 Z isomer) |
| --- | --- | --- | --- | --- | --- | --- | --- | --- | --- | --- | --- | --- |
| COC=C(Oc1ccc(Cl)cc1COc1ccccc1C)C(=O)OC [Compound 2.129] | 2 (10-20) | selective in at least one crop species | 9 (80-90) | 8 (70-80) | 10 (90-100) | 10 (90-100) |  |  |  |  |  |  |
| CCC(=NOCc1ccccc1)OCc1ccccc1OC(=COC)C(=O)OC [Compound 5.146 E isomer, Methyl 2-{2-[(1-Benzyloxyiminopropyl)oxymethyl]phenoxy}-3-methoxyacrylate] |  |  |  |  |  |  | 2 (10-20) | 8 (70-80) | 9 (80-90) |  |  |  |
| COC=C(Oc1ccc(Cl)cc1CO)C(=O)OC [Compound 1.313, Methyl 2-(2-Hydroxymethyl-4-chlorophenoxy)-3-methoxyacrylate] | 3 (20-30) | selective in at least one crop species | 10 (90-100) | 10 (90-100) | 10 (90-100) | 10 (90-100) |  |  |  |  |  |  |
| COC=C(Oc1ccccc1CON=C(C)c1ccc(Cl)cc1)C(=O)OC [Compound 4.68] | 3 (20-30) |  | 8 (70-80) | 6 (50-60) | 10 (90-100) | 10 (90-100) |  |  |  |  |  |  |
| COC=C(Oc1ccc(Cl)cc1COC(C)=O)C(=O)OC [Compound 2.619, Methyl 2-(2-Acetyloxymethyl-4-chlorophenoxy)-3-methoxyacrylate] | 3 (20-30) | selective in at least one crop species | 10 (90-100) | 9 (80-90) | 10 (90-100) | 10 (90-100) |  |  |  |  |  |  |
| COC=C(Oc1ccc(Cl)cc1CON=C(C)c1ccc(Cl)cc1)C(=O)OC [Compound 4.71] | 3 (20-30) | selective in at least one crop species | 9 (80-90) | 9 (80-90) | 10 (90-100) | 10 (90-100) |  |  |  |  |  |  |
| COC=C(Oc1ccc(Cl)cc1CON=C(C)C)C(=O)OC [Compound 4.61] | 1 (0-10) |  | 10 (90-100) | 9 (80-90) | 10 (90-100) | 9 (80-90) |  |  |  |  |  |  |
| COC=C(Oc1ccc(Cl)cc1COc1ccccc1C)C(=O)O [Compound 2.135, 2-[4-Chloro-2-(2-methylphenoxymethyl)]phenoxy-3-methoxyacrylic Acid] | 0 (0) |  | 0 (0) | 4 (30-40) | 4 (30-40) | 9 (80-90) |  |  |  |  |  |  |
| COC=C(Oc1ccc(Cl)cc1CBr)C(=O)OC [Compound 1.73] | 2 (10-20) | selective in at least one crop species | 7 (60-70) | 9 (80-90) | 10 (90-100) | 10 (90-100) |  |  |  |  |  |  |
| CCC(=NOCc1ccccc1)OCc1ccccc1OC(=COC)C(=O)OC [Compound 5.146 Z isomer, Methyl 2-{2-[(1-Benzyloxyiminopropyl)oxymethyl]phenoxy}-3-methoxyacrylate] |  |  |  | 3 (20-30) |  | 10 (90-100) |  |  |  | 3 (20-30) | 9 (80-90) | 10 (90-100) |
| COC=C(Oc1ccc(Cl)cc1CON=C(C)OCc1ccccc1)C(=O)OC [Compound 4.107] | 1 (0-10) | selective in at least one crop species | 5 (40-50) | 9 (80-90) | 10 (90-100) | 10 (90-100) |  |  |  |  |  |  |
| COC=C(Oc1ccccc1CON=C(C)OCc1ccccc1)C(=O)OC [Compound 4.99] | 3 (20-30) |  | 8 (70-80) | 5 (40-50) | 9 (80-90) | 10 (90-100) |  |  |  |  |  |  |
| COC=C(Oc1ccccc1COc1ccccc1C)C(=O)OC [Compound 2.6, Methyl 2-[2-(2-Methylphenoxy)methylphenoxy]-3-methoxyacrylate] | 3 (20-30) |  | 8 (70-80) | 7 (60-70) | 10 (90-100) | 10 (90-100) |  |  |  |  |  |  |
| CCC(=NOCc1ccccc1)OCc1cc(Cl)ccc1OC(=COC)C(=O)OC [Compound 5.541 E isomer] | 1 (0-10) | selective in at least one crop species | 10 (90-100) | 9 (80-90) | 10 (90-100) | 10 (90-100) |  |  |  |  |  |  |
